Like-named read-outs stand apart in the source and are kept apart here.
Columns and labels:
[1] = Stability of the analytes in rat plasma (QC samples); format: in vitro ADME; details: n = 6; for Stability (% RE) Post-Preparative: extracted plasma samples, 12 h at 4 °C after preparation; for Stability (% RE) Short-Term / Stability (% RE) Long-Term / Stability (% RE) Three Freeze-Thaw: rat plasma; for Stability (% RE) Short-Term: 4 h at ambient temperature; for Stability (% RE) Long-Term: storage for 2 weeks at −20 °C; for Stability (% RE) Three Freeze-Thaw: three freeze (−20 °C) and thaw cycles
Description: To study the stability, QC samples of the three analytes at three QC levels (LQC, MQC, and HQC) were added into drug-free plasma samples and each levels contained six replicates. Four different manipulations were designed to assess the stability involving short-term stability (storage for 4 h at ambient temperature), long-term stability (storage for 2 weeks at −20 °C), freeze-thaw stability (three freeze at −20 °C and thaw cycles), and post-preparative stability (storage for 12 h after sample preparation at 4 °C). A series of concentrations of stability testing QC samples was obtained by the calibration curve which was established from freshly prepared standard samples.

[2] = Pharmacokinetic study in rats after oral administration of R. cordifolia extract (UHPLC-MS/MS of plasma); format: in vivo, Sprague-Dawley (SD) rats; details: male, Sprague-Dawley
Description: The UHPLC-MS/MS method described herein was applied to investigate the pharmacokinetics of the three constituents in R. cordifolia after a single oral administration of 0.82 g/kg of extract (equivalent to 6.3 μg/g for mollugin, 1.3 μg/g for munjistin, and 0.68 μg/g for purpurin) to twelve rats. We determined the oral dosage for the rats corresponding to the human dosage recommended in the Chinese Pharmacopoeia (2015 edition). The human dosage of R. cordifolia in the Chinese Pharmacopoeia is 10 g/day, so we calculated the final oral dosage as 0.82 g/kg in rats based on the Meeh-Rubn method.
Twelve male Sprague-Dawley (SD) rats (body weight 220 ± 20 g) were obtained from the experimental animal center of Harbin Medical University and adapted to a constant-temperature (25 °C) room. The animal handling procedures were approved by the institutional ethics committee and conformed to the principles of the International Guide for the Care and Use of Laboratory Animals. Before the experiment, the rats were fasted for 12 h and had access to water during the research period. Blood (0.4 mL) was collected from the orbital venous plexus at several specific time points (0, 0.33, 0.67, 1, 1.3, 1.67, 2, 2.5, 3, 4, 6, 8, 12 and 24 h) after the oral administration of R. cordifolia (0.82 g/kg). After centrifugation at 12000 rpm for 5 min, the plasma was collected immediately and stored at −20 °C until sample analysis.
Before the experiment, the plasma samples were thawed naturally at room temperature. As a liquid-liquid extraction method, 100 μL of methanol and 50 μL of I.S. (2000 ng/mL) were added to a rat plasma sample (100 μL), and then the content was mixed by a vortex mixer for 30 s. After this step, a 3 mL aliquot of ethyl acetate (extraction agent) was accurately added and the mixture vortexed for 60 s. Then the samples were put into a centrifuge. The organic supernatant was pipetted into clean glass tubes individually after centrifugation 4000 rpm for 5 min. The upper organic layer was removed and evaporated to dryness at 40 °C under a stream of nitrogen. The residue was then reconstituted with 100 μL of mobile phase (5 mM ammonium acetate in water/methanol, 10:90, v/v), vortexed for 30 s and filtered by a 0.22 μm membrane. A 5 μL aliquot of the solution was injected into the UHPLC-MS/MS system for analysis.
Noncompartmental methods were applied to calculate the following pharmacokinetic parameters. The peak plasma concentration (Cmax) and the time of maximum plasma concentration (Tmax) were observed directly from the measured data. The elimination rate constant (Ke) was calculated using the linear regression of the terminal points in a semi-log plot of the plasma concentration against time. The elimination half-life (t1/2) was calculated using the formula: t1/2 = 0.693/Ke
The area under the peak plasma concentration-time curve (AUC0→t) to the last measurable plasma concentration (Ct) was estimated using the linear trapezoidal rule. The area under the plasma concentration-time curve to time infinity (AUC0→∞) was calculated as following: AUC0→∞ = AUC0-t + Ct/Ke

[3] = medium QC (26.4/51.5/245 ng/mL)
[4] = high QC (211/412/1960 ng/mL purpurin/munjistin/mollugin)
[5] = low QC (0.528/1.03/4.90 ng/mL purpurin/munjistin/mollugin)
[6] = medium QC (26.4/51.5/245 ng/mL purpurin/munjistin/mollugin)

Stability (% RE) Post-Preparative ([1]; high QC (211/412/1960 ng/mL))	Stability (% RE) Post-Preparative ([1]; low QC (0.528/1.03/4.90 ng/mL))	Stability (% RE) Post-Preparative [1, 3]	Stability (% RE) Short-Term ([1]; high QC (211/412/1960 ng/mL))	Stability (% RE) Short-Term ([1]; low QC (0.528/1.03/4.90 ng/mL))	Stability (% RE) Short-Term [1, 3]	Stability (% RE) Long-Term ([1]; high QC (211/412/1960 ng/mL))	Stability (% RE) Long-Term ([1]; low QC (0.528/1.03/4.90 ng/mL))	Stability (% RE) Long-Term [1, 3]	Stability (% RE) Three Freeze-Thaw [1, 4]	Stability (% RE) Three Freeze-Thaw [1, 5]	Stability (% RE) Three Freeze-Thaw [1, 6]	AUC(0-inf) ([2]; rat, in vivo, po, 0.82 g/kg)	AUC(0-t) ([2]; rat, in vivo, po, 0.82 g/kg)	Cmax ([2]; rat, in vivo, po, 0.82 g/kg)	Tmax ([2]; rat, in vivo, po, 0.82 g/kg)	half-life ([2]; rat, in vivo, po, 0.82 g/kg)	other results	SMILES
13.68 % RE	−14.02 % RE	−2.00 % RE	14.76 % RE	−13.38 % RE	−5.35 % RE	12.08 % RE	−2.59 % RE	−2.68 % RE	14.76 % RE	1.92 % RE	−5.35 % RE	243 ± 35.9 ng·h/mL	206 ± 36.1 ng·h/mL	70.1 ± 11.8 ng/mL	1.61 ± 0.24 h	9.52 ± 2.68 h	–	O=C1c2ccccc2C(=O)c2c(O)c(O)cc(O)c21 [Purpurin, purpurin]
14.38 % RE	11.15 % RE	0.65 % RE	−8.69 % RE	9.90 % RE	−4.35 % RE	−8.55 % RE	4.57 % RE	−0.17 % RE	−13.17 % RE	10.26 % RE	8.78 % RE	–	–	–	–	–	half-life ([2]; rat plasma, single oral 0.82 g/kg R. cordifolia extract, mean ± SD, n = 12, non-compartment model, read-out: t1/2 (converted)): 9.02 ± 2.14 h; AUC(0-t) ([2]; rat plasma, single oral 0.82 g/kg R. cordifolia extract, mean ± SD, n = 12, read-out: AUC0→t): 232 ± 57.6 ng·h/mL; AUC(0-inf) ([2]; rat plasma, single oral 0.82 g/kg R. cordifolia extract, mean ± SD, n = 12, read-out: AUC0→∞): 296 ± 40.9 ng·h/mL; Cmax ([2]; rat plasma, single oral 0.82 g/kg R. cordifolia extract, mean ± SD, n = 12, read-out: Cmax): 52.1 ± 6.71 ng/mL; Tmax ([2]; rat plasma, single oral 0.82 g/kg R. cordifolia extract, mean ± SD, n = 12, read-out: Tmax): 1.99 ± 0.21 h	COC(=O)c1c2c(c3ccccc3c1O)OC(C)(C)C=C2 [Mollugin, mollugin]
−10.15 % RE	11.15 % RE	7.04 % RE	7.31 % RE	11.56 % RE	6.73 % RE	−0.77 % RE	13.97 % RE	5.56 % RE	−2.82 % RE	9.04 % RE	9.46 % RE	136 ± 21.2 ng·h/mL	110 ± 20.1 ng·h/mL	26.1 ± 6.59 ng/mL	2.58 ± 0.19 h	9.22 ± 2.75 h	–	O=C1c2ccccc2C(=O)c2c1cc(O)c(C(=O)O)c2O [Munjistin, munjistin]
